Where two headings read alike, the source gives them in different places.
Assays:
Experiment in all cases: Glasshouse assay for herbicidal activity (pre- and post-emergence), percentage phytotoxicity
Type in all cases: in vivo
[1] = test system: Echinochloa crus-galli (ECHCG); details: Echinochloa crus-galli, rate 250 g/ha
Method in brief: (§1)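 Seeds were sown in standard soil in pots and grown one day (pre-emergence) or about 12 days (post-emergence) before herbicide application. Plants were kept at 24/18 °C (warm-climate) or 20/16 °C (cool-climate) day/night, 16 h light, 65% humidity, watered twice daily, and damage was scored visually at 15 DAA (POST) or 20 DAA (PRE).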

[2] = test system: Lolium perenne (LOLPE); details: Lolium perenne, rate 250 g/ha
Method in brief: as §1

[3] = test system: Alopecurus myosuroides (ALOMY); details: Alopecurus myosuroides, rate 250 g/ha
Method in brief: as §1

[4] = test system: Avena fatua (AVEFA); details: Avena fatua, rate 250 g/ha
Method in brief: as §1

[5] = post-emergence, 360 h, POST-emergence, visual score 15 DAA (100%=total damage, 0%=no damage), read-out: Post-emergence herbicidal activity (percentage phytotoxicity) ECHCG POST
[6] = pre-emergence, 480 h, PRE-emergence, visual score 20 DAA (100%=total damage, 0%=no damage), read-out: Pre-emergence herbicidal activity (percentage phytotoxicity) ECHCG PRE
[7] = post-emergence, 360 h, POST-emergence, visual score 15 DAA (100%=total damage, 0%=no damage), read-out: Post-emergence herbicidal activity (percentage phytotoxicity) LOLPE POST
[8] = pre-emergence, 480 h, PRE-emergence, visual score 20 DAA (100%=total damage, 0%=no damage), read-out: Pre-emergence herbicidal activity (percentage phytotoxicity) LOLPE PRE
[9] = post-emergence, 360 h, POST-emergence, visual score 15 DAA (100%=total damage, 0%=no damage), read-out: Post-emergence herbicidal activity (percentage phytotoxicity) ALOMY POST
[10] = pre-emergence, 480 h, PRE-emergence, visual score 20 DAA (100%=total damage, 0%=no damage), read-out: Pre-emergence herbicidal activity (percentage phytotoxicity) ALOMY PRE
[11] = post-emergence, 360 h, POST-emergence, visual score 15 DAA (100%=total damage, 0%=no damage), read-out: Post-emergence herbicidal activity (percentage phytotoxicity) AVEFA POST
[12] = pre-emergence, 480 h, PRE-emergence, visual score 20 DAA (100%=total damage, 0%=no damage), read-out: Pre-emergence herbicidal activity (percentage phytotoxicity) AVEFA PRE

| SMILES | pest or weed control at 250 g/ha [1, 5] [%] | pest or weed control at 250 g/ha [1, 6] [%] | pest or weed control at 250 g/ha [2, 7] [%] | pest or weed control at 250 g/ha [2, 8] [%] | pest or weed control at 250 g/ha [3, 9] [%] | pest or weed control at 250 g/ha [3, 10] [%] | pest or weed control at 250 g/ha [4, 11] [%] | pest or weed control at 250 g/ha [4, 12] [%] |
| --- | --- | --- | --- | --- | --- | --- | --- | --- |
| CCNC(=O)CC1CC(=O)C(c2c(C)cc(-n3cc(Cl)cn3)cc2C)C1=O (stereo not drawn) [Compound B307] | 100 | 100 | 90 | 100 | 90 | 100 | 100 | 100 |
| Cc1cc(-n2cc(Cl)cn2)cc(C)c1C1C(=O)CC(CC(=O)NC/C=C/Cl)C1=O (stereo not drawn) [Compound B308] | 100 | 80 | 60 | 80 | 90 | 90 | 100 | 80 |
| COCC(C)NC(=O)CC1CC(=O)C(c2c(C)cc(-n3cc(Cl)cn3)cc2C)C1=O (stereo not drawn) [Compound B309] | 100 | 100 | 60 | 80 | 100 | 90 | 100 | 80 |
| COCCCNC(=O)CC1CC(=O)C(c2c(C)cc(-n3cc(Cl)cn3)cc2C)C1=O (stereo not drawn) [Compound B310] | 100 | 90 | 70 | 90 | 90 | 90 | 100 | 80 |
| C=C(C)CNC(=O)CC1CC(=O)C(c2c(C)cc(-n3cc(Cl)cn3)cc2C)C1=O (stereo not drawn) [Compound B311] | 100 | 90 | 70 | 90 | 80 | 80 | 90 | 80 |
| Cc1cc(-n2cc(Cl)cn2)cc(C)c1C1C(=O)CC(CC(=O)NCc2cccc(Br)c2)C1=O (stereo not drawn) [Compound B312] | 100 | 70 | 80 | 70 | 90 | 10 | 100 | 10 |
| C#CC(C)(C)NC(=O)CC1CC(=O)C(c2c(C)cc(-n3cc(Cl)cn3)cc2C)C1=O (stereo not drawn) [Compound B313] | 90 | 100 | 70 | 90 | 90 | 90 | 70 | 80 |
| CCCNC(=O)CC1CC(=O)C(c2c(C)cc(-n3cc(Cl)cn3)cc2C)C1=O (stereo not drawn) [Compound B314, 2-[3-[4-(4-chloropyrazol-1-yl)-2,6-dimethyl-phenyl]-2,4-dioxo-cyclopentyl]-N-propyl-acetamide] | 80 | 100 | 90 | 90 | 100 | 100 | 100 | 90 |
| CCC(C)NC(=O)CC1CC(=O)C(c2c(C)cc(-n3cc(Cl)cn3)cc2C)C1=O (stereo not drawn) [Compound B315] | 100 | 100 | 80 | 70 | 90 | 80 | 100 | 80 |
| C=CC(C)NC(=O)CC1CC(=O)C(c2c(C)cc(-n3cc(Cl)cn3)cc2C)C1=O (stereo not drawn) [Compound B316] | 100 | 90 | 90 | 80 | 90 | 90 | 100 | 80 |
| C#CCNC(=O)CC1CC(=O)C(c2c(C)cc(-n3cc(Cl)cn3)cc2C)C1=O (stereo not drawn) [Compound B317] | 100 | 100 | 90 | 90 | 100 | 90 | 100 | 90 |
| CCNC(=O)CC1CC(=O)C(c2c(C)cc(-c3ccc(C#N)cn3)cc2C)C1=O (stereo not drawn) [Compound B318] | 100 | 90 | 90 | 100 | 90 | 90 | 100 | 90 |
| CC(C)=CNC(=O)CC1CC(=O)C(c2c(C)cc(-c3ccc(C#N)cn3)cc2C)C1=O (stereo not drawn) [Compound B319] | 100 | 0 | 60 | 0 | 70 | 0 | 80 | 0 |
| Cc1cc(-c2ccc(C#N)cn2)cc(C)c1C1C(=O)CC(CC(=O)NC(C)C)C1=O (stereo not drawn) [Compound B320] | 100 | 100 | 100 | 100 | 100 | 100 | 100 | 100 |
| Cc1cc(-c2ccc(C#N)cn2)cc(C)c1C1C(=O)CC(CC(=O)N2CCOCC2)C1=O (stereo not drawn) [Compound B321] | 100 | 100 | 90 | 90 | 90 | 70 | 100 | 80 |
| Cc1cc(-c2ccc(Br)cn2)cc(C)c1C1C(=O)CC(CC(=O)NC(C)(C)C)C1=O (stereo not drawn) [Compound B322] | 100 | 90 | 100 | 90 | 100 | 90 | 100 | 70 |
| CCNC(=O)CC1CC(=O)C(c2c(C)cc(-c3ccc(Br)cn3)cc2C)C1=O (stereo not drawn) [Compound B323] | 100 | 100 | 100 | 100 | 100 | 100 | 100 | 90 |
| COc1ccc(CNC(=O)CC2CC(=O)C(c3c(C)cc(-c4ccc(C#N)cn4)cc3C)C2=O)cc1 (stereo not drawn) [Compound B324] | 100 | 30 | 80 | 60 | 70 | 30 | 90 | 0 |
| COCC(C)(C)NC(=O)CC1CC(=O)C(c2c(C)cc(-c3ncc(Cl)cc3F)cc2C)C1=O (stereo not drawn) [Compound B325] | 100 | 100 | 100 | 100 | 100 | 100 | 100 | 70 |
| Cc1cc(-c2ncc(F)cn2)cc(C)c1C1C(=O)CC(CC(=O)NC/C=C\Br)C1=O (stereo not drawn) [Compound B326] | 100 | 100 | 100 | 100 | 100 | 100 | 100 | 80 |
| COCC(C)(C)NC(=O)CC1CC(=O)C(c2c(C)cc(-c3ncc(F)cn3)cc2C)C1=O (stereo not drawn) [Compound B327] | 100 | 100 | 90 | 100 | 100 | 100 | 100 | 80 |

— US10206394B2, “Herbicidal compounds” (Syngenta Participations AG, priority 2014, dated 2019)
